Experimental data reported in paper PMC2731040 (BMC Clinical Pharmacology, 2009).

Columns and labels:
[1] = Plasma pharmacokinetics of cocaine and benzoylecgonine after IV cocaine-d5 infusion; details: plasma, mean ± SD; for half-life / AUC(0-t) / AUC(0-inf) / clearance / Tmax / Vd / Cmax / k el: human, in vivo; for half-life: (t1/2)z; for clearance: CL; for Vd: Vz; for Cmax: iv, cocaine-d5 IV 0.5 mg/kg over 10 min then 2 mg/kg over 4 h; for k el: λz
Method: In this open-label, unblinded study, a 0.5 mg/kg intravenous loading dose of cocaine-d5 HCl over 10 minutes was followed by a slow 4 hour constant rate cocaine-d5 infusion of 2.0 mg/kg(~175 mg for a 70 kg person). […] When this method of cocaine administration is utilized, a larger dose can be given over a longer period of time and approximates frequently reported patterns of cocaine use. This method also allowed for close monitoring and termination of the infusion if untoward psychiatric or cardiovascular effects occurred.
For both cocaine infusions (sessions 1 and 2), plasma samples for cocaine and metabolites (~6 ml) were obtained 5 minutes before and 10 minutes, 0.5, 1, 1.5, 2, 4, 4.25, 4.5, 5, 6, 8, 12, 21, 27, 33, and 45 hours after each cocaine infusion.
Plasma concentrations of cocaine and benzoylecgonine were measured in our laboratory using a method we developed. The method allows for simultaneous determination of cocaine, benzoylecgonine, and deuterium-labeled analogs [cocaine-d5 and benzoylecgonine-d5 (BE-d5)] by using combined gas chromatography-mass spectrometry (GC-MS). Differently labeled stable isotope analogs were used as internal standards. The calibration curves were from 5 to 2,000 ng/mL for cocaine-d5 and 10 to 2,000 ng/mL for BE-d5. Lower limits of quantitation (LLOQ) were 5 ng/ml (cocaine-d5) and 10 ng/ml (BE-d5) in plasma. Qualitative urine benzoylecgonine was measured by Northwest Toxicology Laboratory, Salt Lake City, Utah, using the Roche Diagnostics Online® immunoassay.
The plasma concentration-time profiles for cocaine and benzoylecgonine (BE) were analyzed by non-compartmental methods, utilizing the pharmacokinetic data analysis program WinNonlin Pro, version 3.0 [31].
The area under the plasma concentration-time curve was calculated using the linear trapezoidal rule up to the maximum plasma concentration, and thereafter using the logarithmic trapezoidal rule to the last measurable plasma concentration. The remaining area was extrapolated to infinity by dividing the last appropriate plasma concentration by the terminal exponential rate constant.
Maximum plasma concentration (Cmax) and time of maximum plasma concentration (Tmax) were determined by visual inspection of data. "Terminal" exponential half-life [(t1/2)z] was calculated from log-linear regression of "terminal" exponential phase data points. Cocaine clearance (CL) and terminal exponential volume of distribution (Vz) were calculated by conventional equations: CL = [Dose/Area under the curve (AUC)0-∞] and Vz = CL/λz, respectively, where λz ("terminal" exponential rate constant) = ln2/(t1/2)z. […] Amount of BE in urine samples was calculated by multiplying concentration by volume.

MAO-B = target: T1, MAO-B (Homo sapiens, UniProt P27338); type: in vivo; details: Day 3–4 After Cocaine Preselegiline
T1 construct: Twelve nondependent cocaine-experienced subjects received deuterium-labeled cocaine-d5 intravenously; from tissue; host or cells: whole body of living human subjects (in vivo); 24-hour urine analysed for PEA
T1 sequence (P27338 1-520): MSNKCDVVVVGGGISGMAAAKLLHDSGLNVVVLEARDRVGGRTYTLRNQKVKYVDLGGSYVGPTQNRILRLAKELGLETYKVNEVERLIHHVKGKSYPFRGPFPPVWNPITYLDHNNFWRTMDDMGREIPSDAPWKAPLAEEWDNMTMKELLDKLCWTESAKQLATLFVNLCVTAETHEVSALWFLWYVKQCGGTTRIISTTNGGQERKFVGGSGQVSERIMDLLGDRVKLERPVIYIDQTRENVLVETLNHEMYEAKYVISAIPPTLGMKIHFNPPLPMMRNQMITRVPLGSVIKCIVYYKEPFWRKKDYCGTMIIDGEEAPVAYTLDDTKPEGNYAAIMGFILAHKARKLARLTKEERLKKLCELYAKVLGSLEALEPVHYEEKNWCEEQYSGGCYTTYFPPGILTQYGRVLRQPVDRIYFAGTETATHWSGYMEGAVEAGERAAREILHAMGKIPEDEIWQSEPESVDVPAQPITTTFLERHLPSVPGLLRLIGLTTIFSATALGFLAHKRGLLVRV
Excerpt: (§1) The interactions between MAO-A inhibitors and cocaine administered are largely unexplored. […] Therefore, measurement of dopaminergic and noradrenergic tone may be important in predicting toxic events. We measured dopaminergic tone with the surrogate marker of plasma HVA, the major brain metabolite of dopamine, and serum levels of prolactin, a hormone whose secretion is inhibited by dopamine. The surrogate for noradrenergic tone was urine concentrations of MHPG-S. In order to assess the degree of MAO-A and MAO-B inhibition, we assayed concentrations of a substrate of MAO-B, phenylethylamine (PEA). PEA would be expected to increase with MAO-B inhibition, and concentrations of MHPG-S, which is a metabolite of norepinephrine produced by MAO-A primarily in the brain [20], would be expected to decrease.
When subjects were in the GCRC, all urine was collected and volumes recorded. Following each cocaine infusion, urine was collected in fractions from 0 to 24, 24 to 48, and 48 to 72 hours (timed from the start of the infusion). Samples were then frozen at -70°C until analyzed. […] A qualitative screen for drugs of abuse was obtained every other day for the entire study period.

dopaminergic tone = assay: Serum prolactin and plasma HVA (surrogate markers of dopaminergic tone); type: in vivo, human; details: both challenge sessions; change within each session not significant
Excerpt: as §1

[2] = humans; cited from earlier work

Work on `COC(=O)[C@H]1[C@@H](OC(=O)c2ccccc2)C[C@@H]2CC[C@H]1N2C` [Cocaine, cocaine] yielded an AUCext ([1]; Pre Selegiline (session 1)) of 1.40 ± 1.03%, an AUCext ([1]; With Selegiline (session 2)) of 1.78 ± 1.87% and a half-life ([1]; Pre Selegiline (session 1)) of 1.71 ± 0.81 h. The half-life ([1]; With Selegiline (session 2)) was 1.57 ± 0.3 h, the AUC(0-t) ([1]; Pre Selegiline (session 1)) was 2640 ± 55.6 ng·h/mL and the AUC(0-t) ([1]; With Selegiline (session 2)) was 2360 ± 499 ng·h/mL. For the same molecule, the AUC(0-inf) ([1]; Pre Selegiline (session 1)) was 2680 ± 1470 ng·h/mL, the AUC(0-inf) ([1]; With Selegiline (session 2)) was 2400 ± 487 ng·h/mL and the clearance ([1]; Pre Selegiline (session 1)) was 18.3 ± 6.17 mL/min/kg. It also gave a clearance ([1]; With Selegiline (session 2)) of 18 ± 3.34 mL/min/kg, a Tmax ([1]; Pre Selegiline (session 1)) of 2.66 ± 1.74 h and a Tmax ([1]; With Selegiline (session 2)) of 2.27 ± 2.04 h. It also gave a Vd ([1]; Pre Selegiline (session 1)) of 2.49 ± 0.88 L/kg, a Vd ([1]; With Selegiline (session 2)) of 2.44 ± 0.64 L/kg and a Cmax ([1]; Pre Selegiline (session 1)) of 721 ± 773 ng/mL. It also gave a Cmax ([1]; With Selegiline (session 2, after one week STS 6 mg/24 hours)) of 640 ± 332 ng/mL, a k el ([1]; Pre Selegiline (session 1)) of 0.000126 s⁻¹ and a k el ([1]; With Selegiline (session 2)) of 0.000127 s⁻¹. The “Total Amount of PEA Excreted in the 24 Hour Urine Collection” value (MAO-B) was 0.003 ± 0.004 mg, the “Serum prolactin levels after cocaine, change within session” value (dopaminergic tone) was “numerically decreased” and the “half life of acute pharmacokinetic and dynamic effects” value [2] was “about 1 hour”.
